Patent US6737383B1, “Herbicidal oxadiazolidines” (priority 1999, dated 2004)

How the values were obtained:
bedstraw = experiment: Test B pre/postemergence bedstraw; type: in vivo, Galium aparine
In short: (§1)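 Response is a visual 0-to-10 score relative to untreated plants, where 0 means no effect and 10 means complete control, taken twelve to sixteen days after application. Treatments went onto soil at planting and onto foliage of 1- to 4-leaf plants, using a surfactant-containing non-phytotoxic solvent.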

blackgrass = experiment: Test B pre/postemergence blackgrass; type: in vivo, Alopecurus myosuroides
In short: as §1

surinam grass = experiment: Test B pre/postemergence surinam grass; type: in vivo, Brachiaria decumbens
In short: as §1

cocklebur = experiment: Test B pre/postemergence cocklebur; type: in vivo, Xanthium strumarium
In short: as §1

corn = experiment: Test B pre/postemergence corn; type: in vivo, Zea mays
In short: as §1

morningglory = experiment: Test B pre/postemergence morningglory; type: in vivo, Ipomoea hederacea
In short: as §1

pigweed = experiment: Test B pre/postemergence pigweed; type: in vivo, Amaranthus retroflexus
In short: as §1

rape = experiment: Test B pre/postemergence rape; type: in vivo, Brassica napus
In short: as §1

velvetleaf = experiment: Test B pre/postemergence velvetleaf; type: in vivo, Abutilon theophrasti
In short: as §1

wheat = experiment: Test B pre/postemergence wheat; type: in vivo, Triticum aestivum
In short: as §1

wild oat = experiment: Test B pre/postemergence wild oat; type: in vivo, Avena fatua
In short: as §1

purple nutsedge = experiment: Test B pre/postemergence purple nutsedge; type: in vivo, Cyperus rotundus
In short: as §1

rice = experiment: Test B flood test rice; type: in vivo, Oryza sativa
In short: (§2)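 Plants were grown to the 2-leaf stage before treatment with test chemical, then held in a greenhouse for twelve to sixteen days. Injury was visually rated against untreated controls on a 0–10 scale, where 0 is no effect and 10 is complete control.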

smallflower flatsedge = experiment: Test B flood test smallflower flatsedge; type: in vivo, Cyperus difformis
In short: as §2

duck salad = experiment: Test B flood test duck salad; type: in vivo, Heteranthera limosa
In short: as §2

bamyardgrass = experiment: Test B flood test barnyardgrass; type: in vivo, Echinochloa crus-galli
In short: as §2

[1] = Preemergence, Rate 62 g/ha, scale of 0 to 10 where 0 is no effect and 10 is complete control
[2] = Preemergence, Rate 250 g/ha, scale of 0 to 10 where 0 is no effect and 10 is complete control
[3] = Preemergence, Rate 500 g/ha, scale of 0 to 10 where 0 is no effect and 10 is complete control
[4] = Rate 62 g/ha, Postemergence, scale of 0 to 10 where 0 is no effect and 10 is complete control
[5] = Rate 125 g/ha, Postemergence, scale 0 to 10
[6] = Rate 125 g/ha, Preemergence, scale of 0 to 10 where 0 is no effect and 10 is complete control
[7] = Rate 500 g/ha, Postemergence, scale 0 to 10, 0 no effect, 10 complete control
[8] = Rate 62 g/ha, headed Pre-emergence (flood test species), scale 0 to 10 (0 no effect, 10 complete control)
[9] = Rate 125 g/ha, Pre-emergence, flood test species, scale 0 to 10 where 0 is no effect and 10 is complete control
[10] = Rate 250 g/ha, Pre-emergence, flood-test species, scale 0 to 10, 0 is no effect, 10 is complete control
[11] = Rate 500 g/ha, Pre-emergence, flood test species, scale 0 to 10 (0 no effect, 10 complete control)

Cc1ccccc1-n1c(=O)on(C(=O)N(c2ccc(C(C)C)cc2)C(C)C)c1=O [Compound 231]
6: Plant response rating, Morningglory (morningglory; [3])
3: Plant response rating (0 to 10; 0 is no effect, 10 is complete control), Morningglory (morningglory; Rate 250 g/ha, Postemergence)
2: Morningglory plant response rating (morningglory; [5])
0: Bedstraw plant response rating (bedstraw; [1]) | Bedstraw plant response rating (bedstraw; [2]) | Plant response rating, Bedstraw (bedstraw; [3]) | Bedstraw plant response rating (bedstraw; [4]) | Bedstraw plant response rating (bedstraw; [5]) | Bedstraw plant response rating (bedstraw; [6]) | Plant response rating (0 to 10; 0 is no effect, 10 is complete control), Bedstraw (bedstraw; Rate 250 g/ha, Postemergence) | Bedstraw plant response rating (bedstraw; [7]) | Blackgrass plant response rating (blackgrass; [1]) | Blackgrass plant response rating (blackgrass; [2]) | Plant response rating, Blackgrass (blackgrass; [3]) | Blackgrass plant response rating (blackgrass; [4]) | Blackgrass plant response rating (blackgrass; [5]) | Blackgrass plant response rating (blackgrass; [6]) | Plant response rating (0 to 10; 0 is no effect, 10 is complete control), Blackgrass (blackgrass; Rate 250 g/ha, Postemergence) | Blackgrass plant response rating (blackgrass; [7]) | B. signalgrass plant response rating (surinam grass; [1]) | B. signalgrass plant response rating (surinam grass; Preemergence, Rate 250 g/ha, scale 0 to 10, 0 is no effect, 10 is complete control) | Plant response rating, B. signalgrass (surinam grass; [3]) | B. signalgrass plant response rating (surinam grass; [4]) | B. signalgrass plant response rating (surinam grass; Rate 125 g/ha, Postemergence, scale 0 (no effect) to 10 (complete control)) | B. signalgrass plant response rating (surinam grass; [6]) | Plant response rating (0 to 10; 0 is no effect, 10 is complete control), B. signalgrass (surinam grass; Rate 250 g/ha, Postemergence) | B. signalgrass plant response rating (surinam grass; [7]) | Cocklebur plant response rating (cocklebur; [1]) | Cocklebur plant response rating (cocklebur; [2]) | Plant response rating, Cocklebur (cocklebur; [3]) | Cocklebur plant response rating (cocklebur; [4]) | Cocklebur plant response rating (cocklebur; [5]) | Cocklebur plant response rating (cocklebur; [6]) | Plant response rating (0 to 10; 0 is no effect, 10 is complete control), Cocklebur (cocklebur; Rate 250 g/ha, Postemergence) | Cocklebur plant response rating (cocklebur; [7]) | Corn plant response rating (corn; [1]) | Corn plant response rating (corn; [2]) | Plant response rating, Corn (corn; [3]) | Corn plant response rating (corn; [4]) | Corn plant response rating (corn; [5]) | Corn plant response rating (corn; [6]) | Plant response rating (0 to 10; 0 is no effect, 10 is complete control), Corn (corn; Rate 250 g/ha, Postemergence) | Corn plant response rating (corn; [7]) | Morningglory plant response rating (morningglory; [1]) | Morningglory plant response rating (morningglory; [2]) | Morningglory plant response rating (morningglory; [6]) | Redroot pigweed plant response rating (pigweed; [1]) | Redroot pigweed plant response rating (pigweed; [2]) | Plant response rating, Redroot pigweed (pigweed; [3]) | Redroot pigweed plant response rating (pigweed; [4]) | Redroot pigweed plant response rating (pigweed; [5]) | Redroot pigweed plant response rating (pigweed; [6]) | Plant response rating (0 to 10; 0 is no effect, 10 is complete control), Redroot pigweed (pigweed; Rate 250 g/ha, Postemergence) | Redroot pigweed plant response rating (pigweed; [7]) | Rape plant response rating (rape; [1]) | Rape plant response rating (rape; [2]) | Plant response rating, Rape (rape; [3]) | Rape plant response rating (rape; [4]) | Rape plant response rating (rape; [5]) | Rape plant response rating (rape; [6]) | Plant response rating (0 to 10; 0 is no effect, 10 is complete control), Rape (rape; Rate 250 g/ha, Postemergence) | Rape plant response rating (rape; [7]) | Velvetleaf plant response rating (velvetleaf; [1]) | Velvetleaf plant response rating (velvetleaf; [2]) | Plant response rating, Velvetleaf (velvetleaf; [3]) | Velvetleaf plant response rating (velvetleaf; [4]) | Velvetleaf plant response rating (velvetleaf; [5]) | Velvetleaf plant response rating (velvetleaf; [6]) | Plant response rating (0 to 10; 0 is no effect, 10 is complete control), Velvetleaf (velvetleaf; Rate 250 g/ha, Postemergence) | Velvetleaf plant response rating (velvetleaf; [7]) | Wheat plant response rating (wheat; [1]) | Wheat plant response rating (wheat; [2]) | Plant response rating, Wheat (wheat; [3]) | Wheat plant response rating (wheat; [4]) | Wheat plant response rating (wheat; [5]) | Wheat plant response rating (wheat; [6]) | Plant response rating (0 to 10; 0 is no effect, 10 is complete control), Wheat (wheat; Rate 250 g/ha, Postemergence) | Wheat plant response rating (wheat; [7]) | Wild oats plant response rating (wild oat; [1]) | Wild oats plant response rating (wild oat; [2]) | Plant response rating, Wild oats (wild oat; [3]) | Wild oats plant response rating (wild oat; [4]) | Wild oats plant response rating (wild oat; [5]) | Wild oats plant response rating (wild oat; [6]) | Plant response rating (0 to 10; 0 is no effect, 10 is complete control), Wild oats (wild oat; Rate 250 g/ha, Postemergence) | Wild oats plant response rating (wild oat; [7]) | Nutsedge plant response rating (purple nutsedge; [1]) | Nutsedge plant response rating (purple nutsedge; [2]) | Plant response rating, Nutsedge (purple nutsedge; [3]) | Nutsedge plant response rating (purple nutsedge; [4]) | Nutsedge plant response rating (purple nutsedge; [5]) | Nutsedge plant response rating (purple nutsedge; [6]) | Plant response rating (0 to 10; 0 is no effect, 10 is complete control), Nutsedge (purple nutsedge; Rate 250 g/ha, Postemergence) | Nutsedge plant response rating (purple nutsedge; [7]) | Rice plant response rating (rice; [8]) | Rice plant response rating (rice; [9]) | Rice plant response rating (rice; [10]) | Rice plant response rating (rice; [11]) | S. Flatsedge plant response rating (smallflower flatsedge; [8]) | S. Flatsedge plant response rating (smallflower flatsedge; [9]) | S. Flatsedge plant response rating (smallflower flatsedge; [10]) | S. Flatsedge plant response rating (smallflower flatsedge; [11]) | Ducksalad plant response rating (duck salad; [8]) | Ducksalad plant response rating (duck salad; [9]) | Ducksalad plant response rating (duck salad; [10]) | Ducksalad plant response rating (duck salad; [11]) | Barnyardgrass plant response rating (bamyardgrass; [8]) | Barnyardgrass plant response rating (bamyardgrass; [9]) | Barnyardgrass plant response rating (bamyardgrass; [10]) | Barnyardgrass plant response rating (bamyardgrass; [11])
1: Morningglory plant response rating (morningglory; [4])
4: Morningglory plant response rating (morningglory; [7])
